The results in this text go back to ChEMBL document CHEMBL4680233, “A series of novel aryl-methanone derivatives as inhibitors of FMS-like tyrosine kinase 3 (FLT3) in FLT3-ITD-positive acute myeloid leukemia” (Eur J Med Chem, 2020).

In data set [1] the test system is MOLM-13. Put plainly: cells. The note with it: Homo sapiens, MOLM-13, 96 h.
Description: Cytotoxicity against human MOLM-13 cells assessed as reduction in cell viability after 4 days by CellTiter-Blue assay
Data set [2] can be described thus: cells. As to conditions: Homo sapiens, ME-1, 96 h.
Description: Cytotoxicity against human ME-1 cells assessed as reduction in cell viability after 4 days by CellTiter-Blue assay
A short description of data set [3]: Toxicity in NMRI nu/nu mouse assessed as lethality at 75 mg/kg/day, po for 3 days. It counts as organism-based. As to conditions: in vivo, 72 h, time 3 day.
The test system of data set [4] is MONO-MAC-6. Put plainly: cells. As to conditions: Homo sapiens, MONO-MAC-6, 96 h.
Description: Cytotoxicity against human MONO-MAC-6 cells assessed as reduction in cell viability after 4 days by CellTiter-Blue assay
Data set [5] relates to ML-2. Put plainly: cells. The note with it: Homo sapiens, ML-2, 96 h.
Description: Cytotoxicity against human ML-2 cells assessed as reduction in cell viability after 4 days by CellTiter-Blue assay
The nature of data set [6]: cells. As to conditions: Homo sapiens, OCI-M1, 96 h.
Description: Cytotoxicity against human OCI-M1 cells assessed as reduction in cell viability after 4 days by CellTiter-Blue assay
Data set [7] deals with NB-4. Put plainly: cells. The note with it: Homo sapiens, NB-4, 96 h.
Description: Cytotoxicity against human NB-4 cells assessed as reduction in cell viability after 4 days by CellTiter-Blue assay
Data set [8] has as its system OPM-2. Put plainly: cells. As to conditions: Homo sapiens, OPM-2, 96 h.
Description: Cytotoxicity against human OPM-2 cells assessed as reduction in cell viability after 4 days by CellTiter-Blue assay
Data set [9] deals with IM-9. Put plainly: cells. As to conditions: Homo sapiens, IM-9, 96 h.
Description: Cytotoxicity against human IM-9 cells assessed as reduction in cell viability after 4 days by CellTiter-Blue assay
A short description of data set [10]: cells. The note with it: Homo sapiens, PL-21, 96 h.
Description: Cytotoxicity against human PL21 cells assessed as reduction in cell viability after 4 days by CellTiter-Blue assay
Data set [11] deals with HL-60. Description: cells. The note with it: Homo sapiens, HL-60, 96 h.
Description: Cytotoxicity against human HL-60 cells assessed as reduction in cell viability after 4 days by CellTiter-Blue assay
The subject of data set [12] is NOMO-1. Description: cells. As to conditions: Homo sapiens, NOMO-1, 96 h.
Description: Cytotoxicity against human NOMO-1 cells assessed as reduction in cell viability after 4 days by CellTiter-Blue assay
Data set [13] can be described thus: Toxicity in NMRI nu/nu mouse assessed as weight gain at 75 mg/kg/day, po for 3 days relative to control. It counts as organism-based. The note with it: in vivo, 72 h, time 3 day.
For data set [14], the system named is TF-1. Put plainly: cells. The note with it: Homo sapiens, TF-1, 96 h.
Description: Cytotoxicity against human TF-1 cells assessed as reduction in cell viability after 4 days by CellTiter-Blue assay
Data set [15] has as its system SKM-1. Put plainly: cells. The note with it: Homo sapiens, SKM-1, 96 h.
Description: Cytotoxicity against human SKM-1 cells assessed as reduction in cell viability after 4 days by CellTiter-Blue assay
The nature of data set [16]: cells. The note with it: Homo sapiens, Mono-Mac-1, 96 h.
Description: Cytotoxicity against human MONO-MAC-1 cells assessed as reduction in cell viability after 4 days by CellTiter-Blue assay
Data set [17] deals with RPMI-8226. Put plainly: cells. As to conditions: Homo sapiens, RPMI-8226, 96 h.
Description: Cytotoxicity against human RPMI-8226 cells assessed as reduction in cell viability after 4 days by CellTiter-Blue assay
Data set [18] deals with KMOE-2. Description: cells. As to conditions: Homo sapiens, KMOE-2, 96 h.
Description: Cytotoxicity against human KMOE-2 cells assessed as reduction in cell viability after 4 days by CellTiter-Blue assay
For data set [19], the system named is EOL1. Description: cells. As to conditions: Homo sapiens, EOL1, 96 h.
Description: Cytotoxicity against human EOL1 cells assessed as reduction in cell viability after 4 days by CellTiter-Blue assay
In data set [20] the test system is KG-1. Put plainly: cells. The note with it: Homo sapiens, KG-1, 96 h.
Description: Cytotoxicity against human KG-1 cells assessed as reduction in cell viability after 4 days by CellTiter-Blue assay
Data set [21] has as its system OCI-AML-5. Put plainly: cells. The note with it: Homo sapiens, OCI-AML-5, 96 h.
Description: Cytotoxicity against human OCI-AML5 cells assessed as reduction in cell viability after 4 days by CellTiter-Blue assay
The subject of data set [22] is OCI-AML2. Description: cells. The note with it: Homo sapiens, OCI-AML2, 96 h.
Description: Cytotoxicity against human OCI-AML2 cells assessed as reduction in cell viability after 4 days by CellTiter-Blue assay
The subject of data set [23] is KG-1a. Put plainly: cells. The note with it: Homo sapiens, 96 h.
Description: Cytotoxicity against human KG-1a cells assessed as reduction in cell viability after 4 days by CellTiter-Blue assay
Data set [24] can be described thus: physchem. As to conditions: water.
Description: Solubility of compound in water at 10 mg after 3 hrs by UV-spectra analysis
The nature of data set [25]: cells. As to conditions: Homo sapiens, MOLP-2, 96 h.
Description: Cytotoxicity against human MOLP-2 cells assessed as reduction in cell viability after 4 days by CellTiter-Blue assay
Data set [26] relates to L-363. Description: cells. As to conditions: Homo sapiens, L-363, 96 h.
Description: Cytotoxicity against human L-363 cells assessed as reduction in cell viability after 4 days by CellTiter-Blue assay
Data set [27] deals with MV4-11. Put plainly: cells. The note with it: Homo sapiens, MV4-11, 96 h.
Description: Cytotoxicity against human MV4-11 cells assessed as reduction in cell viability after 4 days by CellTiter-Blue assay
In data set [28] the test system is U-266. Put plainly: cells. As to conditions: Homo sapiens, U-266, 96 h.
Description: Cytotoxicity against human U-266 cells assessed as reduction in cell viability after 4 days by CellTiter-Blue assay
Data set [29] concerns THP-1. Description: cells. The note with it: Homo sapiens, THP-1, 96 h.
Description: Cytotoxicity against human THP-1 cells assessed as reduction in cell viability after 4 days by CellTiter-Blue assay
The subject of data set [30] is MV4-11. Description: cells. The note with it: Homo sapiens, MV4-11, 72 h.
Description: Cytotoxicity against human MV4-11 cells assessed as reduction in cell viability after 72 hrs by trypan blue dye exclusion method
Data set [31] concerns the target Discoidin domain-containing receptor 2 (Homo sapiens, UniProt Q16832). Put plainly: Inhibition of human DDR2 incubated for 30 mins by Kinobead based assay.
The target in data set [32] is Receptor-type tyrosine-protein kinase FLT3 (Homo sapiens, UniProt P36888, F691L/ITD).
Description: Binding affinity to human partial length FLT3 ITD/F691L double mutant expressed in mammalian expression system by Kinomescan method
Data set [33] concerns the target Proto-oncogene tyrosine-protein kinase receptor Ret (Homo sapiens, UniProt P07949). Description: Inhibition of human RET incubated for 30 mins by Kinobead based assay.
Data set [34] addresses Ephrin type-A receptor 7 (Homo sapiens, UniProt Q15375). Put plainly: Inhibition of human EPHA7 incubated for 30 mins by Kinobead based assay.
Data set [35] concerns the target Receptor-type tyrosine-protein kinase FLT3 (Homo sapiens, UniProt P36888). Put plainly: Inhibition of human FLT3 incubated for 30 mins by Kinobead based assay.
In data set [36] the target is Receptor-type tyrosine-protein kinase FLT3 (Homo sapiens) (UniProt P36888). The note with it: MV4-11, dose 20-40 nM, time 3.0 hrs.
Data set [37] has as its target Receptor-type tyrosine-protein kinase FLT3 (Homo sapiens, UniProt P36888, D835Y).
Data set [38] concerns the target Cyclin-dependent kinase 16 (Homo sapiens, UniProt Q00536). Put plainly: Inhibition of human CDK16 incubated for 30 mins by Kinobead based assay.
Data set [39] has as its target Mitogen-activated protein kinase kinase kinase 20 (Homo sapiens, UniProt Q9NYL2). Put plainly: Inhibition of human ZAK incubated for 30 mins by Kinobead based assay.
Data set [40] has as its target Mitogen-activated protein kinase kinase kinase kinase 4 (Homo sapiens, UniProt O95819). Description: Inhibition of human MAP4K4 incubated for 30 mins by Kinobead based assay.
Data set [41] concerns the target Receptor-type tyrosine-protein kinase FLT3 (Homo sapiens, UniProt P36888, ITD).

Active and inactive are the calls of the source. No cut-off for these calls is given here.

Mitogen-activated protein kinase kinase kinase 20, sequence (Q9NYL2 whole entry): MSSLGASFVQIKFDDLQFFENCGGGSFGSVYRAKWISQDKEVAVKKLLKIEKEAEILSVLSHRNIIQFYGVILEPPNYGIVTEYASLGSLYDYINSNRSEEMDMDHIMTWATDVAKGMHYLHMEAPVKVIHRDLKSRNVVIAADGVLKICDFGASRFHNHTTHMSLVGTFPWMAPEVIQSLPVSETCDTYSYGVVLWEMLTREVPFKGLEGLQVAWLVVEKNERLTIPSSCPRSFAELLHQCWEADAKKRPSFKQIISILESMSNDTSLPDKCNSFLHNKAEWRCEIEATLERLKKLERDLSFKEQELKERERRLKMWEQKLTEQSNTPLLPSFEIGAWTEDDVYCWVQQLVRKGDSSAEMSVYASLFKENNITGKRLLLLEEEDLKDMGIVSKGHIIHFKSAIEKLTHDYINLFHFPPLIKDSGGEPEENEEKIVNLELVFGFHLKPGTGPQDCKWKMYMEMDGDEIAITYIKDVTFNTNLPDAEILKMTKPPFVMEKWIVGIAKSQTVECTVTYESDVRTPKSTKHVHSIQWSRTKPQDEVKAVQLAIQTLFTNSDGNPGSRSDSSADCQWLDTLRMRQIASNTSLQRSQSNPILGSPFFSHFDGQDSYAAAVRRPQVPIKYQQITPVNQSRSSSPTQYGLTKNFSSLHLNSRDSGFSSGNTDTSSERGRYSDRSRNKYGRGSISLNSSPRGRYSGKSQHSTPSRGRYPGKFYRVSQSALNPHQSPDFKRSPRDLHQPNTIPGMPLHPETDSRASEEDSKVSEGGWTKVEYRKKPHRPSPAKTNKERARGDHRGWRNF
Discoidin domain-containing receptor 2, sequence (Q16832 whole entry, the tested form may be a part): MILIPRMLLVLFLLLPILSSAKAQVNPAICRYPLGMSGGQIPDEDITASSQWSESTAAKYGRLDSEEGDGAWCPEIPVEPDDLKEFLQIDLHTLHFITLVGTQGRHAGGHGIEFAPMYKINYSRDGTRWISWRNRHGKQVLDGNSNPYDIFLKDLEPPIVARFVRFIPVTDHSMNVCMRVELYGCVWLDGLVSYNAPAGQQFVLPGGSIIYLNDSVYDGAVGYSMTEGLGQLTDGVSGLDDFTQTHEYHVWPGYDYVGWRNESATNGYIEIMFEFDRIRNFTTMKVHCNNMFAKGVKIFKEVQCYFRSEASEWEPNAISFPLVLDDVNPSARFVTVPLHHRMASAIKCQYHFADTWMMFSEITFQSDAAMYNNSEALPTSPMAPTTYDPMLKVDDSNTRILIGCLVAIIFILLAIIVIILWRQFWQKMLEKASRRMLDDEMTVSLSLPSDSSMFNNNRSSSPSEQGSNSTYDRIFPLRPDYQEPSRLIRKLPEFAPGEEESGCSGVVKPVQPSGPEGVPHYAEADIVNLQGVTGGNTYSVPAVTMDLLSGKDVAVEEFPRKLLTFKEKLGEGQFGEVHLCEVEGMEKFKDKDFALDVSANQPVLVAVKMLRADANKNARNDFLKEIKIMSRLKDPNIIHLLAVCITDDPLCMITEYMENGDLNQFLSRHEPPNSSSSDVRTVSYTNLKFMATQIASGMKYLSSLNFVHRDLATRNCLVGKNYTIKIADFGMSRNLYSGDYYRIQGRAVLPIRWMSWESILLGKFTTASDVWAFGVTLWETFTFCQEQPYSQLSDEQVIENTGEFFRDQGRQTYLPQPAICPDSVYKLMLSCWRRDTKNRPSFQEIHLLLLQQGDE
Ephrin type-A receptor 7, sequence (Q15375 whole entry): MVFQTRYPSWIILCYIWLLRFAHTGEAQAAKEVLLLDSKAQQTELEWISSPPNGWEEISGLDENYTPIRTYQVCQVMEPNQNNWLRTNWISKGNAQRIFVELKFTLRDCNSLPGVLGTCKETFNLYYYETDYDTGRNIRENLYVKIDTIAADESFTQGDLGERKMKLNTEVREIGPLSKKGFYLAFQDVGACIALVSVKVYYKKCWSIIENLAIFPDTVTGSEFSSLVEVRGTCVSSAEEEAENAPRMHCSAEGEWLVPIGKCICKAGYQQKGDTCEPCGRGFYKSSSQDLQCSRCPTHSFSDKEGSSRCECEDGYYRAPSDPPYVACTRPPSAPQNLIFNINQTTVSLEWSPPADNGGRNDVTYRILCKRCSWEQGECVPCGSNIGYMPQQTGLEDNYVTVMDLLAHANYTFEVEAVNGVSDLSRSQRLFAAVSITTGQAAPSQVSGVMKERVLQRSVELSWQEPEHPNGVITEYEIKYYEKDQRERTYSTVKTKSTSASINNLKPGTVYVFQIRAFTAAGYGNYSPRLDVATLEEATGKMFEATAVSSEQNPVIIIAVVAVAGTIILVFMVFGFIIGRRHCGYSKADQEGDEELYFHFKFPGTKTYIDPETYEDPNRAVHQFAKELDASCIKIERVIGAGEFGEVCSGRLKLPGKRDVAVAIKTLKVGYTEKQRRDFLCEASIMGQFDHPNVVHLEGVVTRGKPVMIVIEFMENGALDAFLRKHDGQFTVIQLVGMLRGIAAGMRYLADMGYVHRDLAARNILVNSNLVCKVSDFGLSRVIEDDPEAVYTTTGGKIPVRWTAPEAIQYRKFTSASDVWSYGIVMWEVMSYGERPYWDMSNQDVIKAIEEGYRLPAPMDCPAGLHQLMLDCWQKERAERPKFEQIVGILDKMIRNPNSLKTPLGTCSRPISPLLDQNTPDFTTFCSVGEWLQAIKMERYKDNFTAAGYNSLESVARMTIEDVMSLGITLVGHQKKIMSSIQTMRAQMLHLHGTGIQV
Proto-oncogene tyrosine-protein kinase receptor Ret, sequence (P07949 whole entry): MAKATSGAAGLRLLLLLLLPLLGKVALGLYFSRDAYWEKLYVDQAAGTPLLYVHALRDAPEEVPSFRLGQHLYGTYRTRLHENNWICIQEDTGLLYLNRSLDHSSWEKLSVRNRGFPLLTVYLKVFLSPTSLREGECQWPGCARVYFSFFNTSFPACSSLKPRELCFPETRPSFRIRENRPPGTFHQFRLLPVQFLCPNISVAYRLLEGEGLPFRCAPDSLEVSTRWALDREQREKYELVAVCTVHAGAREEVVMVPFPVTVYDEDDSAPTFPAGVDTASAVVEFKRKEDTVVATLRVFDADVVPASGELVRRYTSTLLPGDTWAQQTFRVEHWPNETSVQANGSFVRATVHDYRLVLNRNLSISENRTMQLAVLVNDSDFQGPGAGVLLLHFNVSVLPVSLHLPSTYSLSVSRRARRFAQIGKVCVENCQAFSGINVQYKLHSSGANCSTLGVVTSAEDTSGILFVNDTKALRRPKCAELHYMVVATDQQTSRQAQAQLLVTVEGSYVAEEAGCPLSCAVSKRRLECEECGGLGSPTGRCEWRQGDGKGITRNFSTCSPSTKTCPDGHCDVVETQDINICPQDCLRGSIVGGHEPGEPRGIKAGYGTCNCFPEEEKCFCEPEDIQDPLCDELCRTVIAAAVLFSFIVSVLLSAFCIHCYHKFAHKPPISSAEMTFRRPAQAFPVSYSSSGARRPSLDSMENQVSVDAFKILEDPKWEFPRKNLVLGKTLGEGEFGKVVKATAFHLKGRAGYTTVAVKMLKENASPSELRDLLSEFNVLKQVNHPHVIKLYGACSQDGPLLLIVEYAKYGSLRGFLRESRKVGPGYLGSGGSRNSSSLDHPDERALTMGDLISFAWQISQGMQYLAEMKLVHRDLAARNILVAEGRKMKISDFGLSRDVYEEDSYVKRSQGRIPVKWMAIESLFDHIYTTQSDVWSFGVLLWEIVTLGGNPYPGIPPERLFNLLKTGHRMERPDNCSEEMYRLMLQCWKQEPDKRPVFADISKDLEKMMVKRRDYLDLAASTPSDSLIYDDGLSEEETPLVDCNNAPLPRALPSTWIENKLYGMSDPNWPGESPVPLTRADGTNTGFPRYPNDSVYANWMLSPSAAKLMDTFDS
Mitogen-activated protein kinase kinase kinase kinase 4, sequence (O95819 whole entry): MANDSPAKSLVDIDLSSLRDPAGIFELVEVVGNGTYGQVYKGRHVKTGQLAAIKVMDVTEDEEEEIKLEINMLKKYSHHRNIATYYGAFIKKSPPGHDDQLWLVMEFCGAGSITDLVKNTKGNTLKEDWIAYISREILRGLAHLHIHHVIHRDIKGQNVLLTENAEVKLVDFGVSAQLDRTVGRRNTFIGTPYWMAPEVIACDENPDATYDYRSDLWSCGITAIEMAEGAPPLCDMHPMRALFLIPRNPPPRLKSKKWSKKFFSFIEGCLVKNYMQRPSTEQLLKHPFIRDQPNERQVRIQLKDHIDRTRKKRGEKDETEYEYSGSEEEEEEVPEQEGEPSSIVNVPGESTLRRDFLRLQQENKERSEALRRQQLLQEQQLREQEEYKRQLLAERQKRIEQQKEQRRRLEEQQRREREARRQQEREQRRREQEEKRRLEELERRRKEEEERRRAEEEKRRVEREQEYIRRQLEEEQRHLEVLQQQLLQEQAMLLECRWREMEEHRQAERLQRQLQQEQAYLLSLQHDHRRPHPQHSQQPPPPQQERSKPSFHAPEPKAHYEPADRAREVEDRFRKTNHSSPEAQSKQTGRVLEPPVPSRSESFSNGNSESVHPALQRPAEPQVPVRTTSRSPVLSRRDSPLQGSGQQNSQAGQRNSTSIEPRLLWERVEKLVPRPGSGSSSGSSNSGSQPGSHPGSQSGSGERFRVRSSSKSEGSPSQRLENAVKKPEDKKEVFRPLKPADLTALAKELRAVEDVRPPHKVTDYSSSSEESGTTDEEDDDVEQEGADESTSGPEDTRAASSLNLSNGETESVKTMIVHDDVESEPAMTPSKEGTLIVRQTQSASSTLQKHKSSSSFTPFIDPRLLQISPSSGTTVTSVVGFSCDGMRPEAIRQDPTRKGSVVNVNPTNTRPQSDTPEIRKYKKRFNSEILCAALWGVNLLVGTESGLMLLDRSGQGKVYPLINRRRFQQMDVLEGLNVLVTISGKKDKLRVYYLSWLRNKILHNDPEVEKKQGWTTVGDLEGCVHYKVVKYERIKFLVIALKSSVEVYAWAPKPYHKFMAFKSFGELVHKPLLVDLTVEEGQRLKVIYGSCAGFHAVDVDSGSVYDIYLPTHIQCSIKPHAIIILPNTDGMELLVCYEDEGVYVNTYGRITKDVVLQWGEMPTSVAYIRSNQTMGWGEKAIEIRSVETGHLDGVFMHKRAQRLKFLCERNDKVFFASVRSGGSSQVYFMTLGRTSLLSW

For `CC(C)(C)c1cc(NC(=O)Nc2ccc3oc(C(=O)c4cc5cc(OC(=O)N6CCC(N7CCCCC7)CC6)ccc5[nH]4)cc3c2)no1.Cl`, the IC50 (in general, the concentration that inhibits the measured activity by half) was 0.002 nM in data set [1]; 2.36 nM in [2]; 0.011 nM in [4]; 1.49 nM in data set [5]; 0.695 nM in [6]; 3.6 nM in data set [7]. In addition, the IC50 in data set [8] was found to be 1.33 nM; in data set [9], 2.25 nM; in [10], 1.3 nM; in data set [11], 2.35 nM; in [12] it was 1.21 nM; in data set [14], 5.31 nM. The concentration for half-maximal inhibition (IC50) was 1.35 nM in [15]; 0.001 nM in data set [16]; 2.37 nM in data set [17]; 5.33 nM in [18]; 0.0001 nM in [19]; 0.556 nM in [20]. The half-inhibitory concentration (IC50) in [21] amounted to 0.159 nM; in data set [22], 1.39 nM; in data set [23] it was 0.613 nM; in data set [25], 2.27 nM; in data set [26] it was 1.61 nM; in [27], 0.0009 nM. In addition, the IC50 was determined as 1.37 nM in [28] and 2.12 nM in [29]. The values for the Activity entry in [3] and in [13] were “Non-Toxic” and 3%, respectively. Also, the solubility (as a rule, the concentration that dissolves in the medium under given conditions) at 3 h in [24] was 230 µg/mL.

As for `Cc1cc(NC(=O)Nc2ccc3[nH]c(C(=O)c4cc5cc(O)ccc5[nH]4)cc3c2)no1`, in [30], the concentration for half-maximal inhibition (IC50) is above 100 nM.

In the case of `Cc1cccc2[nH]c(C(=O)c3cc4ccc(NC(=O)Nc5cc(C(C)(C)C)on5)cc4[nH]3)cc12`, the IC50 in data set [30] worked out at 23.5 nM.

For `CC(C)(C)c1cc(NC(=O)Nc2ccc3[nH]c(C(=O)c4cc5cc(O)ccc5o4)cc3c2)no1`, in [30], the IC50 came out at 0.78 nM.

On to `CC(C)(C)c1cc(NC(=O)Nc2cc3cc(C(=O)c4cc5cc(O)ccc5o4)[nH]c3cn2)no1`, for which, in data set [30], the midpoint of inhibition, the IC50, lay at 29.8 nM.

In data set [30], `CC(C)(C)c1nnc(NC(=O)Nc2ccc3[nH]c(C(=O)c4cc5cc(O)ccc5[nH]4)cc3c2)s1` registered a half-maximal inhibitory concentration (IC50) of 14.4 nM.

As to `Cc1cccc2[nH]c(C(=O)c3cc4cccc(NC(=O)Nc5cc(C(C)(C)C)on5)c4[nH]3)cc12`, the IC50 in [30] was above 100 nM.

The compound `Cc1cccc2[nH]c(C(=O)c3cc4c(NC(=O)Nc5cc(C(C)(C)C)on5)cccc4[nH]3)cc12` came in with a half-inhibitory concentration (IC50) in data set [30] above 100 nM.

`Cc1cccc2[nH]c(C(=O)c3cc4cc(NC(=O)Nc5cc(C(C)(C)C)on5)ccc4[nH]3)cc12` yielded an IC50 in data set [30] of 13.5 nM.

As for `CC(C)(C)c1cc(NC(=O)Nc2ccc3oc(C(=O)c4cc5cc(O)ccc5[nH]4)cc3c2)no1`, the concentration for a half-maximal effect (EC50) – broadly, the concentration at which the effect is half-maximal – is 2490 nM in data set [31]; 2490 nM in [33]; 3260 nM in [34]; 1770 nM in data set [35]; 1770 nM in data set [38]; 3260 nM in [39]. It took 3860 nM to reach a half-maximal effect in data set [40] (EC50). Moreover, the Kd – broadly, the free concentration of one partner at which half of the binding sites on the other are occupied at equilibrium, for simple one-to-one binding – in data set [32] is 115 nM. In addition, the inhibition result in data set [36] was “Active”. The IC50 in data set [37] was found to be 4.84 nM; in data set [41], 2.3 nM.

In data set [30], `CC(C)(C)c1cc(NC(=O)Nc2cnc3[nH]c(C(=O)c4cc5cc(O)ccc5[nH]4)cc3c2)no1` showed a concentration for half-maximal inhibition (IC50) above 100 nM.

Regarding `CC(C)(C)c1cc(NC(=O)Nc2ccc3[nH]c(C(=O)c4cc5cc(O)ccc5[nH]4)cc3c2)no1`, half-maximal inhibition in data set [30] (IC50) was put at 1.7 nM.
